IC50 data for three molecules are collected here from patent US20050119316A1, “Semicarbazide derivatives and the use thereof as antithrombotics” (Merch Patent GmbH, priority 2002, published 2005).

For one experiment, the target named is TF/FVIIa (Homo sapiens, UniProt P08709). Nature of the experiment: Inhibition of TF/factor VIIa (Table 1, affinity to receptors). Type of experiment: biochemical. The source says:
The inhibition of factor VIIa by the compounds according to the invention and the measurement of the anticoagulant and antithrombotic activity can be determined by conventional in-vitro or in-vivo methods. A conventional method for the measurement of the inhibition of factor VIIa is described, for example, by H. F. Ronning et al. in Thrombosis Research 1996, 84, 73-81.

The next experiment concerns the target FXa (Homo sapiens, UniProt P00742). The experiment in a line: Inhibition of factor Xa (Table 1, affinity to receptors). Type of experiment: biochemical. The source says: The inhibition of factor Xa by the compounds according to the invention and the measurement of the anticoagulant and antithrombotic activity can be determined by conventional in-vitro or in-vivo methods. A suitable method is described, for example, by J. Hauptmann et al. in Thrombosis and Haemostasis 1990, 63, 220-223.
The inhibition of factor Xa can be measured, for example, by the method of T. Hara et al. in Thromb. Haemostas. 1994, 71, 314-319.

The IC50 is the concentration at which inhibition is half-maximal. Read a low IC50 as greater potency.

Sequence of FXa (P00742 235-488 limits assumed): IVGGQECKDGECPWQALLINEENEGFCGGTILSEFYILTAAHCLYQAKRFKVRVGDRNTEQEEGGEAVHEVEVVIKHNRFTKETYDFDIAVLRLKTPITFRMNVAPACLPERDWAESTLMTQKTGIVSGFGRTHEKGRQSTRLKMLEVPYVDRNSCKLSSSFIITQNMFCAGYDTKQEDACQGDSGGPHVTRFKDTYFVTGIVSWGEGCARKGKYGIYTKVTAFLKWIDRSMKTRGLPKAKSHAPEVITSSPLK
Sequence of FXa (P00742 41-179 partner limits assumed): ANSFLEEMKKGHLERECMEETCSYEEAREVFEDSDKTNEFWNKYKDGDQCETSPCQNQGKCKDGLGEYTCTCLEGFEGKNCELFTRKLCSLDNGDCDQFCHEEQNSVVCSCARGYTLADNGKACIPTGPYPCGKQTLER
Sequence of TF/FVIIa (P08709 213-466 limits assumed): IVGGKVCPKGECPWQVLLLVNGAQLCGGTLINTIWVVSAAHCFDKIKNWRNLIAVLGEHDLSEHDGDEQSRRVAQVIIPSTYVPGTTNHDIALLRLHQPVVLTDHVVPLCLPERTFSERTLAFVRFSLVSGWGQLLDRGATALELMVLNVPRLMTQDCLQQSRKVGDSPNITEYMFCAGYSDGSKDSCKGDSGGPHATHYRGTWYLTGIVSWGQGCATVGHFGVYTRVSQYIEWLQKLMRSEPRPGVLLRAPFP
Sequence of TF/FVIIa (P08709 61-212 partner limits assumed): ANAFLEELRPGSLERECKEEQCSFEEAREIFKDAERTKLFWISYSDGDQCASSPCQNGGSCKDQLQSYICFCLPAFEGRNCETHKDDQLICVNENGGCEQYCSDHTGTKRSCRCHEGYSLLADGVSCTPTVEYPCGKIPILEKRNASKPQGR
Sequence of TF/FVIIa (P13726 33-295 partner): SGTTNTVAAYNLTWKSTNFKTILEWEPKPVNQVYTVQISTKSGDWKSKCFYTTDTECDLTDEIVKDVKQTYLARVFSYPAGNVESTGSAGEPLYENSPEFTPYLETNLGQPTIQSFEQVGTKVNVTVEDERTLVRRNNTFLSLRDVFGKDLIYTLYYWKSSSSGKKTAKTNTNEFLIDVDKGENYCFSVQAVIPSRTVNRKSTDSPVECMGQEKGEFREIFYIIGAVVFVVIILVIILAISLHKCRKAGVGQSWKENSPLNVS

As for `CS(=O)(=O)c1ccccc1-c1ccc(NC(=O)NN(c2ccccc2)c2cccc(C(N)=NO)c2)c(F)c1` [Compound 8, 1-(3-N-hydroxyamidinophenyl)-4-(3-fluoro-2′-methylsulfonylbiphenyl-4-yl)-1-phenylsemicarbazide], the values for the half-inhibitory concentration (IC50) against TF/FVIIa and on FXa were 8.8 µM and 3.8 µM, respectively.

As for `CS(=O)(=O)c1ccccc1-c1ccc(NC(=O)NN(c2ccccc2)c2cccc(C(=N)N)c2)c(F)c1` [Compound 9, 1-(3-amidinophenyl)-4-(3-fluoro-2′-methylsulfonylbiphenyl-4-yl)-1-phenylsemicarbazide], the IC50 at TF/FVIIa amounted to 0.012 µM; against FXa it was 0.028 µM.

With `CS(=O)(=O)c1ccccc1-c1ccc(NC(=O)NN(c2ccccc2)c2cccc(CN)c2)c(F)c1` [Compound 10, 1-(3-aminomethylphenyl)-4-(3-fluoro-2′-methylsulfonylbiphenyl-4-yl)-1-phenylsemicarbazide], the half-inhibitory concentration (IC50) at TF/FVIIa turned out to be 4.2 µM; against FXa it was 2.4 µM.
